Laboratory results published in paper PMC8434099, “Selected Drug-Likeness Properties of 2-Arylidene-indan-1,3-dione Derivatives—Chemical Compounds with Potential Anti-Cancer Activity” (Molecules, 2021).

What was measured:
B16F10 cells = assay: Antiproliferative activity, MTT protocol; assay type: cell-based, mouse; conditions: 0.01 mg/mL, 72 h, relative to control culture
Experimental: Mouse melanoma (B16F10), human lung carcinoma (A549), and human cervix (HeLa) cell lines (kindly gifted by Prof. Tomasz Drewa, a Chair of Urology, Department of Regenerative Medicine, Collegium Medicum, Nicolaus Copernicus University, Bydgoszcz, Poland) were cultivated at 37 °C, controlled CO2 atmosphere (Binder, Tuttlingen, Germany), and high humidity with RPMI cell culture medium (with L-glutamine and sodium bicarbonate, Sigma-Aldrich), supplemented with 10% of fetal bovine serum (FBS, Biowest, Nuaillé, France), as well as antibiotics (penicillin, streptomycin) and antimycotics (amphotericin B) (Sigma-Aldrich). Combretastatin A4 (CA4), doxorubicin (DoX), and […] were purchased from Sigma-Aldrich.
Cells were counted with an automated cell counter (Countess® II FL, Invitrogen by Thermo Fisher Scientific Inc., Waltham, MA, USA). […] Absorbance readout was conducted using plate reader Multiskan Spectrum (Thermo Electron Corporation, Waltham, MA, USA) at 570 nm.
Combretastatin A4 (CA4), doxorubicin (DX), and […] were employed as positive controls. Biological evaluation was performed as three independent experiments; mean response and standard deviation were calculated using Excel software (v. 2013, Microsoft Corporation, Redmond, WA, USA).

[1] = system: Human Serum Albumin (HSA); assay: Binding to albumin, fluorescence quenching; conditions: calculated from association constant KS for albumin concentration in blood of 44 mg/mL (660 μM)
Experimental: Fluorescence lifetime and fluorescence intensity of HSA solutions were measured using the time-resolved Fluorescence Spectrophotometer Life Spec II (Edinburgh Instruments Ltd., Livingston, UK) with the sub-nanosecond pulsed EPLED diode emitting a light of the wavelength 280 nm. The spectrometer was equipped with electronically cooled photomultiplier Hamamatsu R928 connected with TCC900 PC Card, which incorporates all the electronic modules required for Time-Correlated Single Photon Counting (TCSPC). The fluorescence decays were recorded at an emission wavelength of 350 nm. The data were fitted with an exponential decay to obtain total fluorescence intensity and lifetime. Measurements were performed at room temperature using quartz cuvettes 3.5 × 10 mm. The exposure time of the sample was 30 s. A spectrophotometer Jasco V-550 was used for absorption measurements.
Human Serum Albumin (HSA, 97%) was purchased from Sigma Aldrich. For the fluorescence quenching measurements, the 10 µM PBS solution of HSA at pH 7.4 was prepared, and 10 mM stock solutions of studied compounds were prepared in DMSO (dimethylsulfoxide). The final concentration of studied compounds in HSA solution varied between 0 and 70 µM.
Fluorescence quenching of albumin can be described by the Stern–Volmer Equation [21]: (3) F0/F=KSV[Q]+1, where F0 and F are the fluorescence intensities in the absence and presence of quencher, respectively, [Q] is the concentration of quencher, and KSV is the Stern–Volmer quenching constant.
Due to the fact that a quencher can absorb light at the excitation and/or emission wavelengths, the measured intensity should be corrected according to the Formula [22]:(4) Fobserved=Fcorrect×10^−Aex×dex/2−Aem×dem/2, where Fobserved is the measured fluorescence, Fcorrect is the fluorescence that would be measured in the absence of absorption effect, Aex and Aem are the absorbances of ligand at the excitation (280 nm) and emission wavelength (350 nm), respectively, and dex and dem are the cuvette pathlength in the excitation and emission direction (0.35 cm and 1 cm, respectively).
As the fluorophore can be quenched by collisions or by complex formation with the quencher, there are two types of quenching: dynamic and static. They can be distinguished by lifetime measurements. […] If the quenching is known to be dynamic, then:(5) F0/F=KD[Q]+1=τ0/τ, where τ0 and τ are the lifetimes in the absence and presence of quencher, and KD is the dynamic quenching constant.
In many cases, both static and dynamic quenching occurs for the same fluorophore, then modified Stern–Volmer equation has the form:(6) F0/F=(KD[Q]+1)(KS[Q]+1)=τ0/τ(KS[Q]+1),
The dynamic portion of the quenching (KD[Q] + 1), according to Equation (5), can be determined by lifetime measurements. The portion (KS[Q] + 1) relates to static quenching, and KS is the association constant, which is given by:(7) KS=[F−Q]/[F][Q], where [F−Q] is the concentration of complex fluorophore–quencher, [F] is the concentration of uncomplexed fluorophore (concentration of free HSA molecules), and [Q] is the concentration of quencher.
In this study, the tested compounds were added to the HSA solution, and the fluorescence intensity and lifetime at 350 nm were measured for varying concentrations of ligands. On the basis of absorbance measurements of ligands at 280 nm and 350 nm, the correct fluorescence intensities were estimated using Equation (4). Then, the Stern–Volmer constants, dynamic quenching constants, and association constants of studied compounds were determined using Equations (3), (5) and (6), respectively.
Knowing the value of association constant KS, it is possible to determine the theoretical percentage of the bound and free fraction of the drug for the physiological concentration of albumin. […]

[2] = Chromatographic (RP-HPLC) examination of lipophilicity, Snyder–Soczewiński model; assay type: physicochemical
Experimental: The chromatographic analysis was carried out on a Shimadzu device equipped with a pump system (LC-20AD model), a detector with a diode bench (SPD-M20A model), a degasser (DGU-20A 5R model), a chromatographic oven (CTO-10AS VP), autosampler (SIL-20AC HT model), and chromatographic column (LiChrospher 100 RP-18, 5 μm, Poznań, Poland). Analyses were performed, leading to a multicratic elution. The mobile phase was methanol (J. T. Backer, Phillipsburg, NJ, USA) or acetonitrile (J. T. Backer) and water (Hydrolab, HPL5UV model, Straszyn, Poland) in different volume ratios. In individual analyses, the concentration of the organic modifier expressed as a […] was 0.75–0.95 with a constant step of 0.05. The test compounds were dissolved in methanol. The injection volume was 10 µL. The flow was set at 1 mL/min, the temperature of the chromatography oven at 25 °C, and the detector temperature at 2 °C higher than the ambient temperature. Compounds were detected in the range 190–800 nm. All samples were tested in duplicate at least. Column dead time (tM) was determined using uracil (Sigma Aldrich). The retention coefficient was calculated using the following formula:(1) k=tR/tM−1, where tR is the retention time of the test compound in a given eluent composition, and tM is the chromatographic column dead time.
The value of lipophilicity was determined using the linear dependence of the decimal logarithm from the retention coefficient (logk) and the concentration of the organic modifier in the mobile phase, which was expressed as a volume fraction. For this purpose, the following formula was used:(2) logk=logkw+Sφ, where logk is the decimal logarithm of the retention coefficient, logkw is the value obtained by extrapolating the curve, S is the slope of the regression curve, and φ is the volume fraction of the organic modifier.
The coefficient of determination (R^2) was also calculated for the prepared curves.

Compound: O=C1C(=Cc2cccc3ccccc23)C(=O)c2ccccc21 [Compound 3F, 2-[(naphthalen-1-yl)methylidene]-1H-indene-1,3(2H)-dione]
- Response of B16F10 cells (in words) (B16F10 cells): responded best
- bound fraction (albumin) [1]: 93%
- fraction unbound ([1]; human, human serum albumin solution (10 µM HSA), pH 7.4, read-out: free fraction (albumin)): 0.07
- logkw (ACN) ([2]; RP-HPLC, acetonitrile as organic modifier, extrapolated Snyder–Soczewiński curve): 2.6107
- logkw (MeOH) ([2]; RP-HPLC, methanol as organic modifier, extrapolated Snyder–Soczewiński curve): 3.9640
- Δ = |logkw-MeOH − logkw-ACN| ([2]; difference of logkw between modifiers): 1.3533
- −S (ACN) ([2]; slope of the Snyder–Soczewiński regression curve, acetonitrile as organic modifier): 2.7449
- −S (MeOH) ([2]; slope of the Snyder–Soczewiński regression curve, methanol as organic modifier): 3.8549
